Converted amounts (≈) assume the structure as drawn. Read-outs that look alike come from different tables or passages of the source. Where a SMILES comes first, the peptide text is derived from it. Bridges are numbered along the chain shown (N, C = ends). Roman numbers before positions name the chains, in order. Side-chain parts run from the residue outwards. The star is where a group is joined. Decanoyl = CCCCCCCCCC(=O)*; Octanoyl = CCCCCCCC(=O)*
What was measured:
[1] = tested on: Klebsiella aerogenes ATCC 13048; details: ATCC 13048, 24 h
Description: (§1) The Acinetobacter baumannii ATCC BAA-1605, Enterococcus faecium ATCC 700221, Escherichia coli ML-35 ATCC 43827, Klebsiella aerogenes ATCC 13048, Klebsiella pneumoniae ATCC 700603, Pseudomonas aeruginosa ATCC 9027, Staphylococcus aureus ATCC 25923, Staphylococcus aureus ATCC 33591, Candida albicans ATCC 10231, Candida glabrata ATCC 15126, strains were acquired from the American Type Culture Collection (ATCC). All the strains were stored at −80 °C in Roti-Store cryo vials and before the tests were transferred into fresh Mueller–Hinton broth (MHB, Biocorp, Warsaw, Poland) for bacteria or RPMI-1640 (Sigma-Aldrich, Steinheim, Germany) for fungi and incubated for 24 h at 37 °C. Then, the cultures were seeded on the Mueller–Hinton agar (BioMaxima, Lublin, Poland) or Sabouraud dextrose agar (SDA, BioMaxima, Lublin, Poland) plates, respectively, and incubated as just mentioned. These agar cultures were used for further microbiological assays. Cell densities for all assays were adjusted spectrophotometrically (Multiskan GO Microplate Spectrophotometer, Thermo Fisher Scientific, Vantaa, Finland) at 600 and 530 nm for bacteria and fungi, respectively.
(§2) The MICs were determined by the broth microdilution method according to the Clinical and Laboratory Standard Institute guidelines. […] The experiments were conducted on 96-well microtiter polystyrene plates (Kartell, Noviglio, Italy). The growth was assessed visually after incubation, and the MIC was assumed as the lowest peptide concentration at which a noticeable growth of microorganisms was inhibited. All experiments were conducted in triplicate.

[2] = tested on: Enterococcus faecium ATCC 700221
Description: as §1, §2

[3] = tested on: Staphylococcus aureus ATCC 25923
Description: as §1, §2

[4] = tested on: Pseudomonas aeruginosa ATCC 9027
Description: as §1, §2

[5] = tested on: Acinetobacter baumannii ATCC BAA 1605; details: ATCC BAA 1605, 24 h
Description: as §1, §2

[6] = tested on: Klebsiella pneumoniae ATCC 700603; details: ATCC 700603, 24 h
Description: as §1, §2

[7] = tested on: Candida glabrata ATCC 15126; format: cell-based; details: ATCC 15126, 24 h
Description: (§3) Biofilm is associated with life-threating infections due to its outstanding resistance to antibiotics. In this study, the antibiofilm characteristics of USCLs and gemini surfactants were evaluated.
(§4) The MBECs were determined as described previously using 96-well polystyrene flat-bottom plates. For this purpose, 24 h cultures of microorganisms were diluted to obtain a final density of 5.0 × 10^5 CFU/mL and 2.0 × 10^5 CFU/mL of bacteria and fungi, respectively. Microorganisms were diluted in MHB or RPMI-1640 with 2% D-glucose (bacteria and fungi, respectively). Briefly, 100 µL of cell suspension was added into the test plates. After 24 h of incubation at 37 °C, the wells were rinsed three times with a PBS (pH 7.4) to remove non-adherent cells. Subsequently, 100 μL of the test compounds in a concentration range (1–512 μg/mL) were added to each well. After 24 h of incubation at 37 °C, 20 μL of a cell viability reagent was added (resazurin, 4 g/L; Sigma Aldrich, St. Louis, MO, USA). The MBEC was read after 1 h. The determined values were recorded as the lowest concentration at which the reduction of resazurin (from blue to pink) was lower or equal to 10 ± 0.5% as compared to the positive (100%) and negative (0%) controls. The reduction was monitored by measuring absorbance at 570 nm (reduced) and 600 nm (oxidized) using a microplate spectrophotometer (Multiskan GO Microplate Spectrophotometer, Thermo Fisher Scientific, Vantaa, Finland). All experiments were conducted in triplicate.

[8] = tested on: Klebsiella aerogenes ATCC 13048; format: cell-based; details: ATCC 13048, 24 h
Description: as §3, §4

[9] = tested on: Staphylococcus aureus ATCC 33591; format: cell-based; details: ATCC 33591, 24 h
Description: as §3, §4

[10] = tested on: Staphylococcus aureus ATCC 25923; format: cell-based; details: ATCC 25923, 24 h
Description: as §3, §4

[11] = tested on: Acinetobacter baumannii ATCC BAA 1605; format: cell-based; details: ATCC BAA 1605, 24 h
Description: as §3, §4

[12] = Lipopeptide hydrophobicity by RP-HPLC (adjusted retention time); format: physicochemical; details: for Adjusted Retention Time: RP-HPLC, 20–65% acetonitrile over 30 min, indicator of hydrophobicity
Description: The identity of the purified peptides was confirmed with electrospray ionization mass spectrometry (ESI-MS) in positive ion mode. Results of MS analyses and net charge are attached in Supplementary Materials (Table S1). Peptides’ hydrophobicity was evaluated by analytical reversed-phase high-performance liquid chromatography (RP-HPLC). The critical aggregation concentrations (CACs) of the lipopeptides were determined in unbuffered aqueous solution at 298 K by measuring the surface tension as a function of lipopeptide concentration. The measurements were carried out by the Du Noüy ring method on a K100 tensiometer. The surface tension data were plotted against the logarithm of lipopeptide concentration. CAC was found as the intersection of two lines being linear regression of data below and above CAC.
Lipopeptide hydrophobicity was determined as described previously. To do this, a Waters Alliance e2695 system with a Waters 2998 PDA Detector (software-Empower 3, Waters, Milford, MA, USA) was used. All analyses were carried out on a Waters X-Bridge Shield RP-18 column (3.0 × 100 mm, 3.5 μm particle size, 130 Å pore size). The Shield Technology column with embedded polar groups was used to minimize interactions of unreacted silanol groups with basic lipopeptides. The peptides were dissolved in water (0.1% TFA, v/v) up to a concentration of 1 mg/mL. UV detection at 214 nm was used, and samples (10 μL) were eluted with a linear 20–65% acetonitrile gradient in deionized water over 30 min at 25.0 ± 0.1 °C. The mobile phase flow rate was 0.5 mL/min. Both eluents contained 0.1% (v/v) of TFA. Each peptide sample was analyzed in triplicate. The maximum standard deviation and coefficient of variation were 0.044 and 0.85%, respectively.

SMILES	MIC Klebsiella aerogenes ATCC 13048 [1]	MIC Enterococcus faecium ATCC 700221 ([2]; ATCC 700221, 24 h) [µg/mL]	MIC Staphylococcus aureus ATCC 25923 ([3]; ATCC 25923, 24 h) [µg/mL]	MIC Pseudomonas aeruginosa ATCC 9027 ([4]; ATCC 9027, 24 h) [µg/mL]	MIC Acinetobacter baumannii ATCC BAA 1605 [5]	MIC Klebsiella pneumoniae ATCC 700603 [6]	MBEC Candida glabrata ATCC 15126 [7] [µg/mL]	MBEC Klebsiella aerogenes ATCC 13048 [8] [µg/mL]	MBEC Staphylococcus aureus ATCC 33591 [9] [µg/mL]	MBEC Staphylococcus aureus ATCC 25923 [10] [µg/mL]	MBEC Acinetobacter baumannii ATCC BAA 1605 [11] [µg/mL]	Adjusted Retention Time [12] [min]	Difference in retention time calculated as tR’C—tR’B ([12]; between corresponding surfactants of series C and B) [min]	MIC Enterococcus faecium ATCC 700221 ([2]; planktonic culture)	MIC Staphylococcus aureus ATCC 25923 ([3]; planktonic culture)	MIC Pseudomonas aeruginosa ATCC 9027 ([4]; planktonic culture)
CCCCCCC(CCCC)C(=O)N[C@@H](CCCNC(=N)N)C(=O)N[C@@H](CCCNC(=N)N)C(=O)NCCCC[C@H](NC(=O)[C@H](CCCNC(=N)N)NC(=O)[C@H](CCCNC(=N)N)NC(=O)C(CCCC)CCCCCC)C(N)=O (stereo partly shown) [Compound B7]	16 µg/mL (≈ 14.1 µM)	1 (≈ 0.881 µM)	1 (≈ 0.881 µM)	4 (≈ 3.53 µM)	32 µg/mL (≈ 28.2 µM)	32 µg/mL (≈ 28.2 µM)	256	64	4	8	64	14.68				
CCCCCCCC(=O)N[C@@H](CCCNC(=N)N)C(=O)N[C@@H](CCCNC(=N)N)C(=O)N[C@@H](CSSC[C@H](NC(=O)[C@H](CCCNC(=N)N)NC(=O)[C@H](CCCNC(=N)N)NC(=O)CCCCCCC)C(N)=O)C(N)=O [Compound C1] (I: Octanoyl-Arg-Arg-Cys-NH2 / II: Octanoyl-Arg-Arg-Cys-NH2; disulfide I:3-II:3)	>256 (−/−) µg/mL	32 (≈ 28.7 µM)	8 (≈ 7.17 µM)	64 (≈ 57.4 µM)	256 (−/−) µg/mL	>256 (−/−) µg/mL	>512	>512	32	64	512	8.26	0.15			
CCCCCCCCCC(=O)N[C@@H](CCCNC(=N)N)C(=O)N[C@@H](CCCNC(=N)N)C(N)=O [Compound A2, C10-RR-NH2] (Decanoyl-Arg-Arg-NH2)	>256 (−/−) µg/mL				>256 (−/−) µg/mL	>256 (−/−) µg/mL	>512	>512	512	512	>512	7.74		256 (−/−) µg/mL	256 (−/−) µg/mL	>256 (−/−) µg/mL
CCCCCCCC(=O)N[C@@H](CCCNC(=N)N)C(=O)N[C@@H](CCCNC(=N)N)C(N)=O [Compound A1, C8-RR-NH2] (Octanoyl-Arg-Arg-NH2)	>256 (−/−) µg/mL				>256 (−/−) µg/mL	>256 (−/−) µg/mL	>512	>512	>512	>512	>512	2.93		>256 (−/−) µg/mL	>256 (−/−) µg/mL	>256 (−/−) µg/mL
CCCCCCCC(=O)N[C@@H](CCCNC(=N)N)C(=O)N[C@@H](CCCNC(=N)N)C(=O)NCCCC[C@H](NC(=O)[C@H](CCCNC(=N)N)NC(=O)[C@H](CCCNC(=N)N)NC(=O)CCCCCCC)C(N)=O [Compound B1] (Octanoyl-Arg-Arg-Lys([Arg-Arg-Octanoyl])-NH2)	>256 (−/−) µg/mL	64 (≈ 62.6 µM)	4 (≈ 3.91 µM)	32 (≈ 31.3 µM)	256 (−/−) µg/mL	>256 (−/−) µg/mL	>512	>512	32	32	512	8.11				

Source: article PMC8036666, “Biological and Physico-Chemical Characteristics of Arginine-Rich Peptide Gemini Surfactants with Lysine and Cystine Spacers” (International Journal of Molecular Sciences, 2021)
